Reference: US6403554B2, “Polyunsaturated fatty acid derivatives and their use” (Ardenia Investments Ltd., priority 1998, dated 2002)
“Also recorded” adds a separate entry of the source.

Tested on: antibody-forming cells (AFC) in the spleen
Assay: Influence of compound on humoral immune response to sheep erythrocytes, C57B1/6 female mice (AFC in spleen, hemagglutinins)
Format: in vivo
Settings: for Amount of antibody-forming cells per 10^6 spleen cells / Amount of antibody-forming cells per spleen / Effect on relative amount of AFC (per 10^6 spleen cells) / Effect on total AFC amount (per spleen) / Effect on hemagglutinin titers / Spleen index: i.v.; for Amount of antibody-forming cells per 10^6 spleen cells / Amount of antibody-forming cells per spleen / Effect on relative amount of AFC (per 10^6 spleen cells) / Effect on total AFC amount (per spleen): 5th day; for Amount of antibody-forming cells per 10^6 spleen cells / Amount of antibody-forming cells per spleen: M ± SEM; for Effect on relative amount of AFC (per 10^6 spleen cells) / Effect on total AFC amount (per spleen) / Effect on hemagglutinin titers: vs control; for Spleen index: with SRBC i.p.
Protocol: The increase was calculated as compared with the amount of cells in the animals immunised only with sheep erythrocytes.
0.15 ml of compound 10 was administered intravenously to 6 mice females of CS7B1/6 line (weight 18-22 g) in doses of 45.5, 91 and 136.5 μg of compound 10 per capita for each testing group according to the dose. Simultaneously, a suspension of 5·10^7 sheep erythrocytes was injected intraperitoneally (0.2 ml per capita). Mice in the control group were injected intravenously with equal volume of saline. The effects of compound 10 on humoral immune response were analyzed both by counting the quantity of AFC in the spleen according to Cunningham (per 10^6 spleen cells and per spleen) and estimating the titers of hemagglutining antibodies in serum of the animals (Cunningham A. J., Nature, 1965, Vol.207, No 5001. P.1106-1107), while the titers of hemagglutinating antibodies were evaluated according to litterature (Evans J. et al., Cell, 1974; Vol 3., p.153-158, Feizi T., Menger E., Transfusion, 1970, Vol. 10, p.33-35,).
(§1) 0.15 ml of compound 11 was administered intravenously to 6 female mice of the C57B1/6 line (weight 18-22 g) in doses of 45.5, 91 and 136.5 μg of compound 11 per capita for each testing group according to the dose. Simultaneously, a suspension of 5·10^7 sheep erytrocytes was injected intraperitoneally (0.2 ml per capita). Mice in the control group were injected intravenously with an equal volume of saline. The effects of compound 11 on humoral immune response was analysed both by counting the quantity of AFC in the spleen according to Cunningham (per 10^6 spleen cells and per spleen) and estimating the titers of hemagglutining antibodies in serum of the animals.
as §1, with “12” for “11”, “erythrocytes” for “erytrocytes”, “analyzed” for “analysed”
as §1, with “compound 8” for “compound 11”, “sheep erythrocytes” for “sheep erytrocytes”, “Mice of” for “Mice in”, “response were analyzed” for “response was analysed”
0.15 ml of compound 3 was administered intravenously to 6 female mice of the C57B1/6 line (weight 18-22 g) in doses of 45.5, 91 and 136.5 μg of compound 3 per capita for each testing group according to the dose. Simultaneously, a suspension of 5·10^7 sheep erytrocytes was injected intraperitoneally (0.2 ml per capita). Mice of the control group were injected intravenously with equal volume of saline.

Structure (SMILES)	Immunogenic activity (45.5 μg/mouse)	Amount of antibody-forming cells per 10^6 spleen cells (45.5 μg/mouse)	Amount of antibody-forming cells per spleen (45.5 μg/mouse)	Effect on relative amount of AFC (per 10^6 spleen cells) (45.5 μg/mouse)	Effect on total AFC amount (per spleen) (45.5 μg/mouse)	Effect on hemagglutinin titers (45.5 μg/mouse)	Spleen index (45.5 μg/mouse)	immunostimulating effect in vivo in micelle form (91 μg/mouse)	Amount of antibody-forming cells per 10^6 spleen cells (91 μg/mouse)	Amount of antibody-forming cells per spleen (91 μg/mouse)	Effect on hemagglutinin titers (91 μg/mouse)	Spleen index (91 μg/mouse)	Amount of antibody-forming cells per 10^6 spleen cells (136.5 μg/mouse)	Amount of antibody-forming cells per spleen (136.5 μg/mouse)	Effect on relative amount of AFC (per 10^6 spleen cells) (91 μg/mouse)	Effect on total AFC amount (per spleen) (91 μg/mouse)	immunostimulating action (136.5 μg/mouse)	Effect on hemagglutinin titers (136.5 μg/mouse)	Spleen index (136.5 μg/mouse)	Immunogenic activity (45.5 and 91 μg/mouse)	also measured
CC1=C(/C=C/C(C)=C/C=C/C(C)=C/C(=O)N[C@@H](Cc2ccc(OP(=O)(O)O)cc2)C(=O)O)C(C)(C)CCC1 (stereo in doubt) [Compound 4, N-(all-trans-Retinoyl)-O-phospho-L-tyrosine]	no immunogenic activity	405.0±47.9 cells per 10^6 spleen cells	55.0±6.7 × 10^3	−0.3 p >0.05%	−8.9 p > 0.05%	−3.2 p > 0.05%	6.6 ± 0.5 10^−3	display immunostimulating effect in vivo	692.9±44.8 cells per 10^6 spleen cells	87.6±4.3 × 10^3	+4.8 p > 0.05%	6.3 ± 0.4 10^−3	1354.3±99.9 cells per 10^6 spleen cells	138.9±10.0 × 10^3	–	–	–	–	–	–	immunostimulating action (91 and 136.5 μg/mouse): high immunostimulating action
CC/C=C\C/C=C\C/C=C\C/C=C\C/C=C\CCCC(=O)NCCOP(=O)(O)O [Compound 13, N-(cis-5,8,11,14,17-eicosapentaenoyl)-O-phospho-2-aminoethanol]	–	608.2±61.3 cells per 10^6 spleen cells	48.2±6.5 × 10^3	−3.2 p > 0.05%	+5.0 p > 0.05%	+7,8 p > 0.05%	5.4 ± 0.6 10^−3	–	525.0±97.2 cells per 10^6 spleen cells	49.4±6.2 × 10^3	+5,6 p > 0.05%	5.7 ± 0.8 10^−3	885.9±65.8 cells per 10^6 spleen cells	68.2±6.9 × 10^3	−16.5 p > 0.05%	+7.6 p > 0.65%	high immunostimulating action; also recorded: marked immunostimulating action	+14,4 p > 0.05%	5.3 ± 0.4 10^−3	no immunogenic activity	–
CC1=C(/C=C/C(C)=C/C=C/C(C)=C\C(=O)NCCOP(=O)(O)O)C(C)(C)CCC1 [Compound 1a, N-(13cis-Retinoyl)-O-phospho-2-aminoethanol]	no immunogenic activity	815.8±70.9 cells per 10^6 spleen cells	104.6±10.7 × 10^3	+5.6 p > 0.05%	+16.4 p > 0.05%	−1,3 p > 0.05%	6.1 ± 0.2 10^−3	display immunostimulating effect in vivo	997.2±43.4 cells per 10^6 spleen cells	114.5±8.2 × 10^3	−1,3 p > 0.05%	6.2 ± 0.2 10^−3	1176.9±58.5 cells per 10^6 spleen cells	149.4±9.4 × 10^3	–	–	–	+6,5 p > 0.05%	6.9 ± 0.3 10^−3	–	immunostimulating action (91 and 136.5 μg/mouse): marked immunostimulating action
CC/C=C\C/C=C\C/C=C\CCCCCCCC(=O)N[C@H](C(=O)O)[C@@H](C)OP(=O)(O)O [Compound 19, N-(cis-9,12,15-octadecatrienoyl)-O-phospho-L-threonine]	–	454.7±57.9 cells per 10^6 spleen cells	48.8±6.4 × 10^3	+4.3 p > 0.05%	+5.4 p > 0.05%	+1,3 p > 005%	6.2 ± 10^−3	–	473.2±44.5 cells per 10^6 spleen cells	51.2±6.1 × 10^3	+3.8 p > 0.05%	6.4 ± 10^−3	612.5±47.3 cells per 10^6 spleen cells	64.7±4.9 × 10^3	+8.6 p > 0.05%	+10.6 p > 0.05%	marked immunostimulating action	+6.3 p > 0.05%	6.5 ± 10^−3	no immunogenic activity	–
CC/C=C\C/C=C\C/C=C\CCCCCCCC(=O)N[C@@H](Cc1ccc(OP(=O)(O)O)cc1)C(=O)O [Compound 20, N-(cis-9,12,15-octadecatrienoyl)-O-phospho-L-tyrosine]	–	512.8±46.2 cells per 10^6 spleen cells	46.4±4.8 × 10^3	−9.8 p > 0.05%	−7.4 p > 0.05%	–	6.3 ± 0.3 10^−3	–	634.5±51.7 cells per 10^6 spleen cells	55.7±5.6 × 10^3	+1.4 p > 0.05%	6.5 ± 0.2 10^−3	845.1±43.1 cells per 10^6 spleen cells	75.8±7.7 × 10^3	+11.6 p > 0.05%	+11.2 p > 0.05%	marked immunostimulating action	+2.7 p > 0.05%	6.4 ± 0.4 10^−3	no immunogenic activity	–
